Measurements as given in PubChem BioAssay (NCI).
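Step 1: Grow cells in 96-well plates. Step 2: Expose to compound for 48 hours at 5 concentrations. Step 3: Interpolate endpoints linearly; if unreached, use highest concentration. GI50 = concentration required for 50% inhibition of growth. TGI marks complete inhibition of growth.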

Legend:
Experiment in all cases: DTP human tumour cell line panel, 48 h
ACHN renal = tested on: ACHN renal
SF-268 CNS = tested on: SF-268 CNS
HS 578T breast = tested on: HS 578T breast
MDA-MB-435 = tested on: MDA-MB-435
NCI-H226 lung = tested on: NCI-H226 lung
SN12C renal = tested on: SN12C renal
NCI/ADR-RES ovarian = tested on: NCI/ADR-RES ovarian
SW-620 colon = tested on: SW-620 colon
OVCAR-4 ovarian = tested on: OVCAR-4 ovarian
HCT-15 colon = tested on: HCT-15 colon
TK-10 renal = tested on: TK-10 renal
K-562 leukemia = tested on: K-562 leukemia
MOLT-4 leukemia = tested on: MOLT-4 leukemia
COLO 205 colon = tested on: COLO 205 colon
SR leukemia = tested on: SR leukemia
IGROV1 ovarian = tested on: IGROV1 ovarian
CCRF-CEM leukemia = tested on: CCRF-CEM leukemia
DU-145 prostate = tested on: DU-145 prostate
NCI-H522 lung = tested on: NCI-H522 lung
SK-MEL-28 melanoma = tested on: SK-MEL-28 melanoma
KM12 colon = tested on: KM12 colon
PC-3 prostate = tested on: PC-3 prostate
UO-31 renal = tested on: UO-31 renal
SF-539 CNS = tested on: SF-539 CNS
NCI-H23 lung = tested on: NCI-H23 lung
HCC-2998 colon = tested on: HCC-2998 colon
MALME-3M melanoma = tested on: MALME-3M melanoma
HOP-62 NSCLC = tested on: HOP-62 NSCLC
CAKI-1 renal = tested on: CAKI-1 renal
SK-MEL-5 melanoma = tested on: SK-MEL-5 melanoma
UACC-62 melanoma = tested on: UACC-62 melanoma
SNB-19 CNS = tested on: SNB-19 CNS
SF-295 CNS = tested on: SF-295 CNS
BT-549 breast = tested on: BT-549 breast
RPMI-8226 leukemia = tested on: RPMI-8226 leukemia
HT29 colon = tested on: HT29 colon
OVCAR-5 ovarian = tested on: OVCAR-5 ovarian
OVCAR-3 ovarian = tested on: OVCAR-3 ovarian
LOX IMVI melanoma = tested on: LOX IMVI melanoma
786-0 renal = tested on: 786-0 renal
RXF 393 renal = tested on: RXF 393 renal
HL-60(TB) leukemia = tested on: HL-60(TB) leukemia
U251 CNS = tested on: U251 CNS
MCF7 breast = tested on: MCF7 breast
A549 NSCLC = tested on: A549 NSCLC
T-47D breast = tested on: T-47D breast
EKVX NSCLC = tested on: EKVX NSCLC
MDA-MB-231 breast = tested on: MDA-MB-231 breast
NCI-H460 lung = tested on: NCI-H460 lung
SK-MEL-2 melanoma = tested on: SK-MEL-2 melanoma
MDA-N = tested on: MDA-N
HCT-116 colon = tested on: HCT-116 colon
SK-OV-3 ovarian = tested on: SK-OV-3 ovarian
M14 melanoma = tested on: M14 melanoma
SNB-75 CNS = tested on: SNB-75 CNS
OVCAR-8 ovarian = tested on: OVCAR-8 ovarian
UACC-257 melanoma = tested on: UACC-257 melanoma
A498 renal = tested on: A498 renal
HOP-92 NSCLC = tested on: HOP-92 NSCLC

Compound CC1=C(C(=O)OC(C)C)C(c2ccccc2C(F)(F)F)C(C(=O)OC(CO[N+](=O)[O-])CO[N+](=O)[O-])=C(C)N1 (centres undefined) has a TGI (ACHN renal) of 22.1 µM, a TGI (SF-268 CNS) of 38.7 µM and a TGI (HS 578T breast) of 49.8 µM. It also gave a TGI (MDA-MB-435) of 27.4 µM, a TGI (NCI-H226 lung) of 38.5 µM and a TGI (SN12C renal) of 32 µM. It also gave a TGI (NCI/ADR-RES ovarian) of 30.6 µM, a TGI (SW-620 colon) of 23.3 µM and a TGI (OVCAR-4 ovarian) of 28.5 µM. For the same compound, the TGI (HCT-15 colon) was 93.8 µM, the TGI (TK-10 renal) was greater than 100 µM and the TGI (K-562 leukemia) was 41.7 µM. The TGI (MOLT-4 leukemia) was 9.79 µM, the TGI (COLO 205 colon) was 63.5 µM and the TGI (SR leukemia) was greater than 100 µM. For the same compound, the TGI (IGROV1 ovarian) was 25.9 µM, the TGI (CCRF-CEM leukemia) was 11.1 µM and the TGI (DU-145 prostate) was greater than 100 µM. For the same compound, the TGI (NCI-H522 lung) was 14.2 µM, the TGI (SK-MEL-28 melanoma) was 55.3 µM and the TGI (KM12 colon) was 18.5 µM. The TGI (PC-3 prostate) was 12.2 µM, the TGI (UO-31 renal) was 4.37 µM and the TGI (SF-539 CNS) was 23.2 µM. For the same compound, the TGI (NCI-H23 lung) was greater than 100 µM, the TGI (HCC-2998 colon) was greater than 100 µM and the TGI (MALME-3M melanoma) was 33 µM. For the same compound, the TGI (HOP-62 NSCLC) was 29.5 µM, the TGI (CAKI-1 renal) was 38.5 µM and the TGI (SK-MEL-5 melanoma) was 11.4 µM. The TGI (UACC-62 melanoma) was 20.1 µM, the TGI (SNB-19 CNS) was greater than 100 µM and the TGI (SF-295 CNS) was 21.8 µM. For the same compound, the TGI (BT-549 breast) was 22.1 µM, the TGI (RPMI-8226 leukemia) was greater than 100 µM and the TGI (HT29 colon) was 26.3 µM. It also gave a TGI (OVCAR-5 ovarian) of 46.8 µM, a TGI (OVCAR-3 ovarian) of 28.3 µM and a TGI (LOX IMVI melanoma) of 21.1 µM. The TGI (786-0 renal) was 14 µM, the TGI (RXF 393 renal) was 24.7 µM and the TGI (HL-60(TB) leukemia) was greater than 100 µM. For the same compound, the TGI (U251 CNS) was 29 µM, the TGI (MCF7 breast) was 72.2 µM and the TGI (A549 NSCLC) was 33 µM. It also gave a TGI (T-47D breast) greater than 100 µM, a TGI (EKVX NSCLC) of 70.2 µM and a TGI (MDA-MB-231 breast) of 28.2 µM. For the same compound, the TGI (NCI-H460 lung) was 42.6 µM, the TGI (SK-MEL-2 melanoma) was 47.1 µM and the TGI (MDA-N) was 21.9 µM. For the same compound, the TGI (HCT-116 colon) was 16.6 µM, the TGI (SK-OV-3 ovarian) was 38.9 µM and the TGI (M14 melanoma) was 23.9 µM. The TGI (SNB-75 CNS) was 16.7 µM.
For Cc1ccc2c(=O)cc(-c3sc4ccccc4c3C)[nH]c2n1, the TGI (SF-268 CNS) was 69.7 µM, the TGI (HS 578T breast) was 51.7 µM and the GI50 (MDA-MB-435) was 4.84 µM. The TGI (MDA-MB-435) was 17.8 µM, the TGI (NCI-H226 lung) was 81.3 µM and the TGI (SN12C renal) was greater than 100 µM. It also gave a TGI (NCI/ADR-RES ovarian) of 47.6 µM, a GI50 (SW-620 colon) of 19.8 µM and a TGI (SW-620 colon) of 65.8 µM. For the same compound, the TGI (OVCAR-4 ovarian) was 54 µM, the TGI (HCT-15 colon) was 73.8 µM and the TGI (TK-10 renal) was greater than 100 µM. It also gave a TGI (K-562 leukemia) greater than 100 µM, a TGI (MOLT-4 leukemia) of 69.7 µM and a TGI (COLO 205 colon) of 65.8 µM. The TGI (IGROV1 ovarian) was 45.7 µM, the TGI (CCRF-CEM leukemia) was 58.4 µM and the TGI (DU-145 prostate) was 65.9 µM. It also gave a TGI (NCI-H522 lung) of 42.3 µM, a TGI (SK-MEL-28 melanoma) of 71.4 µM and a TGI (KM12 colon) of 36.4 µM. It also gave a TGI (OVCAR-8 ovarian) of 56.3 µM, a GI50 (PC-3 prostate) of 33.4 µM and a TGI (PC-3 prostate) greater than 100 µM. The GI50 (NCI-H23 lung) was 19.7 µM, the TGI (NCI-H23 lung) was 48.1 µM and the TGI (UACC-257 melanoma) was greater than 100 µM. The TGI (MALME-3M melanoma) was 41.6 µM, the TGI (A498 renal) was greater than 100 µM and the TGI (HOP-62 NSCLC) was 75.4 µM. The TGI (CAKI-1 renal) was 53.3 µM, the GI50 (SK-MEL-5 melanoma) was 14.9 µM and the TGI (SK-MEL-5 melanoma) was 28.2 µM. It also gave a TGI (UACC-62 melanoma) of 36.3 µM, a TGI (SNB-19 CNS) greater than 100 µM and a TGI (SF-295 CNS) of 52.1 µM. For the same compound, the TGI (BT-549 breast) was 44.7 µM, the TGI (RPMI-8226 leukemia) was 38.1 µM and the TGI (HT29 colon) was 78.1 µM. For the same compound, the TGI (OVCAR-5 ovarian) was greater than 100 µM, the GI50 (OVCAR-3 ovarian) was 19.7 µM and the TGI (OVCAR-3 ovarian) was 50.1 µM. For the same compound, the TGI (LOX IMVI melanoma) was 46.7 µM, the TGI (786-0 renal) was 46.8 µM and the GI50 (RXF 393 renal) was 16.8 µM. It also gave a TGI (RXF 393 renal) of 53.1 µM, a GI50 (HL-60(TB) leukemia) of 18.5 µM and a TGI (HL-60(TB) leukemia) of 42.9 µM. For the same compound, the GI50 (U251 CNS) was 38.7 µM, the TGI (U251 CNS) was greater than 100 µM and the TGI (MCF7 breast) was greater than 100 µM. The TGI (A549 NSCLC) was 85.6 µM, the TGI (T-47D breast) was 55.8 µM and the TGI (EKVX NSCLC) was 88.2 µM. The TGI (MDA-MB-231 breast) was greater than 100 µM, the TGI (HOP-92 NSCLC) was 30.6 µM and the TGI (SK-MEL-2 melanoma) was greater than 100 µM. It also gave a TGI (MDA-N) of 45 µM, a TGI (HCT-116 colon) of 55.6 µM and a TGI (SK-OV-3 ovarian) of 71.4 µM. For the same compound, the TGI (M14 melanoma) was 51 µM and the TGI (SNB-75 CNS) was 50.8 µM.
For CC#CC(O)(C(=O)OC1CC2CCC(C1)N2C)C1CCCC1 (centres undefined), the TGI (ACHN renal) was greater than 100 µM, the TGI (SF-268 CNS) was greater than 100 µM and the TGI (HS 578T breast) was greater than 100 µM. It also gave a TGI (MDA-MB-435) greater than 100 µM, a TGI (NCI-H226 lung) greater than 100 µM and a TGI (SN12C renal) greater than 100 µM. For the same compound, the TGI (NCI/ADR-RES ovarian) was greater than 100 µM, the TGI (SW-620 colon) was greater than 100 µM and the TGI (OVCAR-4 ovarian) was greater than 100 µM. For the same compound, the TGI (HCT-15 colon) was greater than 100 µM, the TGI (TK-10 renal) was greater than 100 µM and the TGI (K-562 leukemia) was greater than 100 µM. It also gave a TGI (MOLT-4 leukemia) greater than 100 µM, a TGI (COLO 205 colon) greater than 100 µM and a TGI (SR leukemia) greater than 100 µM. The TGI (IGROV1 ovarian) was greater than 100 µM, the TGI (CCRF-CEM leukemia) was greater than 100 µM and the TGI (DU-145 prostate) was greater than 100 µM. The TGI (SK-MEL-28 melanoma) was greater than 100 µM, the TGI (KM12 colon) was greater than 100 µM and the TGI (OVCAR-8 ovarian) was greater than 100 µM. For the same compound, the TGI (PC-3 prostate) was greater than 100 µM, the TGI (UO-31 renal) was greater than 100 µM and the TGI (SF-539 CNS) was greater than 100 µM. It also gave a TGI (NCI-H23 lung) greater than 100 µM, a TGI (UACC-257 melanoma) greater than 100 µM and a TGI (HCC-2998 colon) greater than 100 µM. The TGI (A498 renal) was greater than 100 µM, the TGI (HOP-62 NSCLC) was greater than 100 µM and the TGI (CAKI-1 renal) was greater than 100 µM. It also gave a TGI (SK-MEL-5 melanoma) greater than 100 µM, a TGI (UACC-62 melanoma) greater than 100 µM and a TGI (SNB-19 CNS) greater than 100 µM. For the same compound, the TGI (SF-295 CNS) was greater than 100 µM, the TGI (BT-549 breast) was greater than 100 µM and the TGI (RPMI-8226 leukemia) was greater than 100 µM. For the same compound, the TGI (HT29 colon) was greater than 100 µM, the TGI (OVCAR-5 ovarian) was greater than 100 µM and the TGI (OVCAR-3 ovarian) was greater than 100 µM. For the same compound, the TGI (LOX IMVI melanoma) was greater than 100 µM, the TGI (786-0 renal) was greater than 100 µM and the TGI (RXF 393 renal) was greater than 100 µM. For the same compound, the TGI (HL-60(TB) leukemia) was greater than 100 µM, the TGI (U251 CNS) was greater than 100 µM and the TGI (MCF7 breast) was greater than 100 µM. It also gave a TGI (A549 NSCLC) greater than 100 µM, a TGI (T-47D breast) greater than 100 µM and a TGI (EKVX NSCLC) greater than 100 µM. For the same compound, the TGI (MDA-MB-231 breast) was greater than 100 µM, the TGI (NCI-H460 lung) was greater than 100 µM and the TGI (HOP-92 NSCLC) was greater than 100 µM. The TGI (SK-MEL-2 melanoma) was greater than 100 µM, the TGI (MDA-N) was greater than 100 µM and the TGI (HCT-116 colon) was greater than 100 µM. For the same compound, the TGI (SK-OV-3 ovarian) was greater than 100 µM, the TGI (M14 melanoma) was greater than 100 µM and the TGI (SNB-75 CNS) was greater than 100 µM.
